# System: fatty acid desaturation index (FADI), RBCs
# Experiment: Fatty acid desaturation index (FADI) ratios in red blood cells, 12-week placebo-controlled study
# Type: in vivo, human
# Conditions: 4 g/day, 12 weeks, placebo-adjusted, from baseline
# Protocol: A multi-center, placebo-controlled, randomized, double-blind, 12-week study was performed to evaluate the efficacy and safety of >96% E-EPA in patients with fasting triglyceride levels ≥200 mg/dl and <500 mg/dl despite statin therapy (the mean of two qualifying entry values needed to be ≥185 mg/dl and at least one of the values needed to be ≥200 mg/dl). The primary objective of the study was to determine the efficacy of >96% E-EPA 2 g daily and 4 g daily, compared to placebo, in lowering fasting TG levels in patients with high risk for cardiovascular disease and with fasting TG levels ≥200 mg/dl and <500 mg/dl, despite treatment to LDL-C goal on statin therapy.
# The population for this study was men and women >18 years of age with a body mass index ≤45 kg/m^2 with fasting TG levels greater than or equal to 200 mg/dl and less than 500 mg/dl and on a stable does of statin therapy (with or without ezetimibe). The statin was atorvostatin, rosuvastatin or simvastatin. The dose of statin must have been stable for ≥4 weeks prior to the LDL-C/TG baseline qualifying measurement for randomization. The statin dose was optimized such that the patients are at their LDL-C goal at the LDL-C/TG baseline qualifying measurements. The same statin at the same dose was continued until the study ended. […]
# The primary efficacy variable for the double-blind treatment period was percent change in TG from baseline to Week 12 endpoint. The secondary efficacy variables for the double-blind treatment period included the following: • Percent changes in total cholesterol (TC), high-density lipoprotein cholesterol (HDL-C), LDL-C, calculated non-HDL-C, and very low-density lipoprotein cholesterol (VLDL-C) from baseline to Week 12 endpoint; • Percent change in very low-density lipoprotein TG from baseline to Week 12; • Percent changes in apolipoprotein A-I (apo A-I), apolipoprotein B (apo B), and apo A-I/apo B ratio from baseline to Week 12; • Percent changes in lipoprotein(a) from baseline to Week 12; • Percent changes in LDL particle number and size, measured by nuclear magnetic resonance, from baseline to Week 12; • Percent change in remnant-like particle cholesterol from baseline to Week 12; • Percent change in oxidized LDL from baseline to Week 12; • Changes in FPG and HbA1c from baseline to Week 12; • Change in insulin resistance, as assessed by the homeostasis model index insulin resistance, from baseline to Week 12; • Percent change in lipoprotein associated phospholipase A2 (Lp-PLA2) from baseline to Week 12; • Change in intracellular adhesion molecule-1 from baseline to Week 12; • Change in interleukin-2 from baseline to Week 12; • Change in plasminogen activator inhibitor-1 from baseline to Week 12. […]
# [1] = listed as Ethyl Eicosapentaenoate
smiles,measurement,setting,value
"CC/C=C\C/C=C\C/C=C\C/C=C\C/C=C\CCCC(=O)OCC [ethyl eicosapentaenoate, all-cis eicosa-5,8,11,14,17-pentaenoic acid ethyl ester]","FADI-16 (Palmitoleic acid/Palmitic acid, C16:1/C16:0) % Change, RBCs",,significantly reduced
same,"FADI-18 (Oleic acid/Stearic Acid, C18:1/C18:0) % Change, RBCs",,significantly reduced
same,"FADI-16 (Palmitoleic acid/Palmitic acid, C16:1/C16:0) % Change, RBCs",[1],−15.7%
same,"FADI-18 (Oleic acid/Stearic Acid, C18:1/C18:0) % Change, RBCs",[1],−3.1%

# From patent publication US20210069145A1, “COMPOSITIONS AND METHODS FOR REDUCING A FATTY ACID DESATURATION INDEX IN A SUBJECT IN NEED THEREOF” (Amarin Pharmaceuticals Ireland Limited, priority 2013, published 2021)
